Measurements: ChEMBL document CHEMBL1151292, “Antineoplastic activity and cytotoxicity of flavones, isoflavones, and flavanones” (1979)
Converted amounts (≈) assume the structure as drawn. The source made the active and inactive calls. Unless noted, the rule behind the calls is not given here.

Assays:
CCRF S-180 = assay: In vivo antitumor activity against mouse S180 cells; format: functional, organism-based
Walker 256 = assay: In vivo antitumor activity against rat Walker 256 cells; format: functional, organism-based
KB = assay: Cytotoxicity against human KB cells; format: functional; details: read-out: ED50 (the source's name)
FV = assay: In vivo antitumor activity against mouse FV cells; format: functional, organism-based
[1] = test system: Lewis lung carcinoma cell line; assay: In vivo antitumor activity against mouse LLC cells; format: functional, organism-based
CA-755 = assay: In vivo antitumor activity against mouse CA-755 cells; format: functional, organism-based
L1210 = assay: In vivo antitumor activity against mouse L1210 cells; format: functional, organism-based
P388 = assay: In vivo antitumor activity against mouse P388 cells; format: functional, organism-based
B16 = assay: In vivo antitumor activity against mouse B16 carcinoma cells; format: functional, organism-based
Rattus norvegicus = assay: In vivo antitumor activity against rat dunning leukemia cells; format: functional, organism-based
P1798 = assay: In vivo antitumor activity against mouse P1798 cells; format: functional, organism-based

| Structure (SMILES) | Activity (CCRF S-180) | Activity (Walker 256) | EC50 (KB) [µg/mL] | Activity (FV) | Activity (L1210) | Activity (P388) | further results |
| --- | --- | --- | --- | --- | --- | --- | --- |
| COc1cc2c(=O)cc(-c3ccc(O)cc3)oc2c(OC)c1OC | inactive | Active | 0.7 (≈ 2.13 µM) | Active | – | – | Activity [1]: inactive |
| O=C1c2c(O)cc(O)cc2OC(c2ccc(O)c(O)c2)C1O (stereo unspecified) [TAXIFOLIN] | inactive | inactive | 40 (≈ 131 µM) | – | – | – | Activity (CA-755): inactive |
| COc1ccc(-c2cc(=O)c3c(O)cc(O)cc3o2)cc1 [ACACETIN] | inactive | – | > 100 | – | inactive | inactive | Activity (CA-755): inactive |
| COc1ccc(-c2coc3cc(OC)c(OC)c(OC)c3c2=O)cc1 | inactive | – | 34 (≈ 99.3 µM) | Active | – | – | – |
| COc1cc(OC)c(-c2cc(=O)c3c(OC)c(OC)c(OC)c(OC)c3o2)cc1OC | – | Active | 13 (≈ 30.1 µM) | – | – | – | Activity [1]: inactive |
| COc1ccc(C2(OC)Oc3ccccc3C(=O)C2(O)O)cc1 (stereo unspecified) | – | inactive | – | – | inactive | – | – |
| CCOc1ccc(-c2coc3cc(C)c(OCC)c(C)c3c2=O)cc1 | – | – | – | inactive | – | – | – |
| O=c1c(O[C@@H]2O[C@H](CO)[C@@H](O)[C@H](O)[C@H]2O)c(-c2ccc(O)c(O)c2)oc2cc(O)cc(O)c12 [ISOQUERCETIN] | inactive | inactive | > 100 | – | inactive | inactive | Activity (CA-755): inactive |
| COc1ccc(C2(OC)Oc3cc(OC)ccc3C(=O)C2(O)OC)cc1 (stereo unspecified) | – | inactive | – | – | inactive | – | – |
| COc1ccc(-c2coc3c(OC)c(OC)c(OC)c(OC)c3c2=O)cc1 | – | – | – | Active | – | – | – |
| COc1cc2occ(-c3ccc(O)cc3)c(=O)c2c(OC)c1O | – | – | – | inactive | – | – | – |
| O=C1c2cc(O)c(O)cc2OC(c2ccc(O)c(O)c2)C1O (stereo unspecified) | inactive | – | – | – | inactive | inactive | – |
| O=c1c(O)c(-c2ccc(O)cc2O)oc2cc(O)cc(O)c12 | inactive | – | – | – | inactive | inactive | Activity (CA-755): inactive |
| O=c1c(O)c(-c2ccc(Cl)cc2)oc2ccccc12 | – | inactive | – | – | inactive | – | – |
| COc1ccc(-c2oc3cc(O)c(OC)c(O)c3c(=O)c2OC)cc1O [CENTAUREIDIN] | – | – | 0.4 (≈ 1.11 µM) | – | – | inactive | – |
| Cc1oc2cc(O)ccc2c(=O)c1-c1ccccc1 | – | inactive | – | – | inactive | – | – |
| O=c1c(O)c(-c2ccc(O)c(O)c2)oc2cc(O)ccc12 [FISETIN] | inactive | – | > 100 | – | inactive | inactive | Activity [1]: inactive |
| COc1ccc(-c2cc(=O)c3c(O)cc(OC)cc3o2)cc1 [APIGENIN DIMETHYLETHER] | inactive | – | 45 (≈ 151 µM) | – | inactive | inactive | Activity [1]: inactive |
| Nc1c(-c2ccccc2)oc2ccc(Cl)cc2c1=O | inactive | – | > 100 | inactive | inactive | – | – |
| COc1ccc2c(=O)c(C)c(-c3ccccc3)oc2c1 | inactive | – | 43 (≈ 161 µM) | Active | inactive | – | – |
| Cc1ccc2oc(-c3ccccc3)c(O)c(=O)c2c1 | inactive | – | 2 (≈ 7.93 µM) | – | inactive | inactive | Activity (B16): inactive |
| COc1cccc(OC)c1-c1oc2ccccc2c(=O)c1O | inactive | – | 1 (≈ 3.35 µM) | inactive | inactive | inactive | – |
| O=c1cc(-c2ccc(O)cc2)oc2cc(O)cc(O)c12 [APIGENIN] | – | – | 7.4 (≈ 27.4 µM) | – | inactive | – | Activity (Rattus norvegicus): inactive; Activity (P1798): inactive |
| O=c1cc(-c2ccccc2)oc2cc(O)cc(O)c12 [CHRYSIN] | – | inactive | 13 (≈ 51.1 µM) | – | inactive | – | – |
